One assay addresses 5-HT6 (Homo sapiens, UniProt P50406). Kind of assay: 5-HT6 receptor inhibition/binding (Tables 2-3).
In assay [1] the target is T1, human gene recombinant 5-HT7 receptor expressed in CHO cells (Homo sapiens, UniProt P34969).
T1 construct: expressed in transfected cells; host or cells: CHO cells (membrane preparation)
Briefly: Binding affinity for the 5-HT7 serotonin receptor ([3H]LSD radioligand). The protocol: In this example, the human gene recombinant 5-HT7 receptor expressed in CHO cells was used. 1 nM [^3H]LSD, 5-HT7 receptor membrane (15 μg/well), a test drug, 10 mM MgCl2, 50 mM Tris-HCl buffer (pH 7.4) containing 0.1 mM EDTA, etc. were added to a vessel until the final volume reached 0.25 ml. The test drug was used at various concentrations. The mixture was cultured at 25° C. for 90 min. The culture was rapidly filtered through a Whatman GF/C glass fiber filter, which had been previously wetted with 0.3% polyethyleneimine using a Brandel harvester, to quench the reaction. The reaction mixture was washed with cold 50 mM Tris-HCl buffer. The filter was covered with MeltiLex, sealed in a sample bag, and dried in an oven. Counting was performed using MicroBeta (Wallac) and nonspecific binding was measured in the presence of […]. The K value of the test drug was obtained from nonlinear regression analysis (GraphPad Prism Program, San Diego, USA) of isotherms obtained by repeatedly performing the experiment on the drug at 10-11 stage concentrations in two test tubes (each twice).
The % inhibition values of the inventive compounds having different Y structures at a concentration of 10 μM against the 5-HT7 serotonin receptor were measured. Further, the binding affinity (Ki) values of the inventive compounds having different Y structures at a concentration of 10 μM for the 5-HT7 serotonin receptor were measured.

The next assay addresses T2, 5-HT1A (Homo sapiens, UniProt P08908).
T2 sequence (P08908 1-422): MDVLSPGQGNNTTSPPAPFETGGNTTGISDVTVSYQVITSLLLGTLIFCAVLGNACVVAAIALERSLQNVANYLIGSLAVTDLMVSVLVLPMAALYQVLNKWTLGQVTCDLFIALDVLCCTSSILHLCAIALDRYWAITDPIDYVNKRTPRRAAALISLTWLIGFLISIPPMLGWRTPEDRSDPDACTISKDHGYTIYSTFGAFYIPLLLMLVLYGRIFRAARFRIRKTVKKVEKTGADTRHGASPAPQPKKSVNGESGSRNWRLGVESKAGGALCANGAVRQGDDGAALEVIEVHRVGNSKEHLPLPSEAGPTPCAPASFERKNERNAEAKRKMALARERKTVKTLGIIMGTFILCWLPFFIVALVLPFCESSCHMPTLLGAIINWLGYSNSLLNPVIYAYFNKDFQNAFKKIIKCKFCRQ
Briefly: 5-HT1A receptor inhibition (Table 3). Format: binding.

The target of another assay is T3, 5-HT2C (Homo sapiens, UniProt P28335).
T3 sequence (P28335 33-458): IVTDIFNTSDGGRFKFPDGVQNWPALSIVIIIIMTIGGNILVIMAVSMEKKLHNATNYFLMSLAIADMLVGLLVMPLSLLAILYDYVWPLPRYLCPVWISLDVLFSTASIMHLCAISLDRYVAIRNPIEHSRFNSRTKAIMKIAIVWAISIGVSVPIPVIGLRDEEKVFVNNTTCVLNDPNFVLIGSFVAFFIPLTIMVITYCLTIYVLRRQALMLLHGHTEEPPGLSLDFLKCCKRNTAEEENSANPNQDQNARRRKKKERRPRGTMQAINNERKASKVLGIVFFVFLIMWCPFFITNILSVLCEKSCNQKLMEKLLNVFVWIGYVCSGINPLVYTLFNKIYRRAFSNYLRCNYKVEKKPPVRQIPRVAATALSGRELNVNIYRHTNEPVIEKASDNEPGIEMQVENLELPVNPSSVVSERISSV
Briefly: 5-HT2C receptor inhibition/binding (Tables 1-3).

Where a name gives a salt, the structure may show the parent alone.

As usually defined, the inhibition is the relative decrease from the control value, in per cent. For orientation: Ki means the equilibrium dissociation constant of an inhibitor or competing ligand from its target.

Sequence of 5-HT6 (P50406 whole entry, species assumed): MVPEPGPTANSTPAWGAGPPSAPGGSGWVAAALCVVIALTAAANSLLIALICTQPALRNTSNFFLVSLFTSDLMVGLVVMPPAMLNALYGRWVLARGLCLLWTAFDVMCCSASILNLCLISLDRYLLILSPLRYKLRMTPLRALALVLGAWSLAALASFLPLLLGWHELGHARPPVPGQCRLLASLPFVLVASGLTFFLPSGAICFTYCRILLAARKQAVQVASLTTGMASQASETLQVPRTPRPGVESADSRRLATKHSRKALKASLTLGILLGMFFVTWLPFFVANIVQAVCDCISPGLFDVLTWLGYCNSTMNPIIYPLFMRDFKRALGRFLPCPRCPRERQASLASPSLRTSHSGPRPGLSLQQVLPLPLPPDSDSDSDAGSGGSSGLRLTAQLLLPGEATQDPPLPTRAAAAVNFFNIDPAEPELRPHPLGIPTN
T1 sequence (P34969 whole entry): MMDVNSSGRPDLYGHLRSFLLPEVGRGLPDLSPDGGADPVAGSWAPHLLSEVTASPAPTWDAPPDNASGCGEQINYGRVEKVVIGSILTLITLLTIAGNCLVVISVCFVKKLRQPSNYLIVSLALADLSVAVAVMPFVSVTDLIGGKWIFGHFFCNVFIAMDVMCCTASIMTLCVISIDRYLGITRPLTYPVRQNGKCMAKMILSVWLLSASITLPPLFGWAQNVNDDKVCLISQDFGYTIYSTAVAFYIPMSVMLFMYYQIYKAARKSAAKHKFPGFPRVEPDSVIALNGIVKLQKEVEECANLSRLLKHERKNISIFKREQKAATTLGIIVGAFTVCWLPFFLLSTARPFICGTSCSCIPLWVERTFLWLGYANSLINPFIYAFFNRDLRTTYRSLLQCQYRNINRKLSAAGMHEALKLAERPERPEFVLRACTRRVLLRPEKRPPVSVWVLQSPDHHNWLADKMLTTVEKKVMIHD

In the case of `Oc1ccccc1N1CCN(CCCCCCn2c3ccccc3c3ccccc32)CC1` [Example 2.48, 2-(4-(6-(9H-carbazol-9-yl)hexyl)piperazin-1-yl)phenol], the inhibition at 10 µM on 5-HT6 is 96.9%; in assay [1], 90.5%; against 5-HT1A, 105%. The Ki in assay [1] came to 89 nM.

Consider `c1ccc(C2CCN(CCCCCn3c4ccccc4c4ccccc43)CC2)cc1` [Example 2.50, 9-(5-(4-Phenylpiperidin-1-yl)pentyl)-9H-carbazole], for which, on 5-HT6, the Ki stood at 123 nM and the inhibition at 10 µM is 96.1%. Also, in assay [1], the Ki stood at 178 nM and the inhibition at 10 µM is 94.1%.

Turning to `c1ccc(C2CCN(CCCCn3c4ccccc4c4ccccc43)CC2)cc1` [Example 2.54, 9-(4-(4-Phenylpiperidin-1-yl)butyl)-9H-carbazole], on 5-HT6, the Ki was found to be 1430 nM and the inhibition at 10 µM was 55.5%. Also, in assay [1], the Ki worked out at 205 nM and the inhibition at 10 µM came to 94.4%.

As for `O=C(CCCCN1CCC(Cc2ccccc2)CC1)n1c2ccccc2c2ccccc21` [Example 2.26, 5-(4-Benzylpiperidin-1-yl)-1-(9H-carbazol-9-yl)pentan-1-one hydrochloride], the Ki was 302 nM at 5-HT6 and 312 nM in assay [1]. The inhibition at 10 µM on 5-HT6 amounted to 93.4%; in assay [1] it was 97.4%; at 5-HT2C, 43.1%.

On to `c1ccc(C2CCN(CCCCCCn3c4ccccc4c4ccccc43)CC2)cc1` [Example 2.43, 9-(6-(4-Phenylpiperidin-1-yl)hexyl)-9H-carbazole], for which the Ki at 5-HT6 was determined as 169 nM; in assay [1], 212 nM. Besides, the inhibition at 10 µM at 5-HT6 amounted to 94.9%; in assay [1], 89.9%.

Take `O=C(CCCCN1CCC(c2ccccc2)CC1)n1c2ccccc2c2ccccc21` [Example 2.25, 1-(9H-carbazol-9-yl)-5-(4-phenylpiperidin-1-yl)pentan-1-one hydrochloride]: the inhibition constant (Ki) at 5-HT6 amounted to 1500 nM; in assay [1], 153 nM; at 5-HT2C it was 905 nM. In addition, the values for the inhibition at 10 µM (at 5-HT6; in assay [1]; on 5-HT2C) were 67%, 96% and 53.2%, respectively.

As to `Oc1ccccc1N1CCN(CCCn2c3ccccc3c3ccccc32)CC1` [Example 2.59, 2-(4-(3-(9H-carbazol-9-yl)propyl)piperazin-1-yl)phenol], the inhibition at 10 µM at 5-HT6 turned out to be 21.7%; in assay [1], 94.7%; at 5-HT1A, 105%. The Ki in assay [1] turned out to be 96 nM.

Turning to `c1ccc(CN2CCN(CCCn3c4ccccc4c4ccccc43)CC2)cc1` [Example 2.58, 9-(3-(4-Benzylpiperazin-1-yl)propyl)-9H-carbazole], the inhibition at 10 µM on 5-HT6 stood at 15.1%; in assay [1], 88.7%; at 5-HT1A, 64.9%. Besides, in assay [1], the Ki came out at 404 nM.

On to `COc1ccccc1N1CCN(CCCn2c3ccccc3c3ccccc32)CC1` [Example 2.60, 9-(3-(4-(2-Methoxyphenyl)piperazin-1-yl)propyl)-9H-carbazole], for which the inhibition at 10 µM was determined as 12.2% on 5-HT6, 90.7% in assay [1] and 103% on 5-HT1A. Besides, in assay [1], the Ki was 155 nM.

For `O=C(CCCN1CCN(Cc2ccccc2)CC1)n1c2ccccc2c2ccccc21` [Example 2.32, 4-(4-Benzylpiperazin-1-yl)-1-(9H-carbazol-9-yl)butan-1-one hydrochloride], the inhibition at 10 µM worked out at 14.7% on 5-HT6, 90.8% in assay [1] and 69.4% against 5-HT1A. Also, in assay [1], the Ki turned out to be 404 nM.

For `c1ccc(CN2CCN(CCCCCn3c4ccccc4c4ccccc43)CC2)cc1` [Example 2.51, 9-(5-(4-Benzylpiperazin-1-yl)pentyl)-9H-carbazole], the inhibition at 10 µM at 5-HT6 was 65.1%; in assay [1], 86.8%; on 5-HT1A, 74.9%. Also, the Ki in assay [1] amounted to 233 nM.

As for `c1ccc(CC2CCN(CCCCCCn3c4ccccc4c4ccccc43)CC2)cc1` [Example 2.44, 9-(6-(4-Benzylpiperidin-1-yl)hexyl)-9H-carbazole], on 5-HT6, the Ki was 142 nM and the inhibition at 10 µM was 97.8%. In assay [1], the Ki is 232 nM and the inhibition at 10 µM was 86.8%.

With `c1ccc(C2CCN(CCCn3c4ccccc4c4ccccc43)CC2)cc1` [Example 2.57, 9-(3-(4-Phenylpiperidin-1-yl)propyl)-9H-carbazole], the inhibition at 10 µM on 5-HT6 is 32.9%. In assay [1], the Ki was 353 nM and the inhibition at 10 µM is 91.1%.

Take `COc1ccccc1N1CCN(CCCCCn2c3ccccc3c3ccccc32)CC1` [Example 2.53, 9-(5-(4-(2-Methoxyphenyl)piperazin-1-yl)pentyl)-9H-carbazole]: the values for the inhibition at 10 µM (at 5-HT6; in assay [1]; against 5-HT1A) were 75.5%, 91.5% and 101%, respectively. The Ki in assay [1] came to 65 nM.

For `O=C(CCCCN1CCN(c2ccccc2O)CC1)n1c2ccccc2c2ccccc21` [Example 2.30, 1-(9H-carbazol-9-yl)-5-(4-(2-hydroxyphenyl)piperazin-1-yl)pentan-1-one hydrochloride], the inhibition at 10 µM at 5-HT6 amounted to 62.6%; in assay [1], 98.7%; against 5-HT1A it was 102%. The Ki in assay [1] was 86 nM.

For `COc1ccccc1N1CCN(CCCCCCn2c3ccccc3c3ccccc32)CC1` [Example 2.49, 9-(6-(4-(2-Methoxyphenyl)piperazin-1-yl)hexyl)-9H-carbazole], the figures for the inhibition at 10 µM (at 5-HT6; in assay [1]; on 5-HT1A) were 85.1%, 85.7% and 105%, respectively. In assay [1], the Ki was 145 nM.

On to `Oc1ccccc1N1CCN(CCCCCn2c3ccccc3c3ccccc32)CC1` [Example 2.52, 2-(4-(5-(9H-carbazol-9-yl)pentyl)piperazin-1-yl)phenol], for which the figures for the inhibition at 10 µM (at 5-HT6; in assay [1]; on 5-HT1A) were 95.5%, 94.4% and 103%, respectively. In assay [1], the Ki is 31 nM.

With `CN1CCN(CCCCC(=O)n2c3ccccc3c3ccccc32)CC1` [Example 2.28, 1-(9H-carbazol-9-yl)-5-(4-methylpiperazin-1-yl)pentan-1-one hydrochloride], the inhibition at 10 µM on 5-HT6 came out at 78.4%; in assay [1], 40.4%; on 5-HT1A, 15.9%.

For the compound `CN1CCN(CCCCCCn2c3ccccc3c3ccccc32)CC1` [Example 2.46, 9-(6-(4-Methylpiperazin-1-yl)hexyl)-9H-carbazole], the inhibition at 10 µM on 5-HT6 came out at 82.2%; in assay [1], 49.4%; against 5-HT1A, 19.3%.

As for `COc1ccccc1N1CCN(CCCCn2c3ccccc3c3ccccc32)CC1` [Example 2.56, 9-(4-(4-(2-Methoxyphenyl)piperazin-1-yl)butyl)-9H-carbazole], the figures for the inhibition at 10 µM (at 5-HT6; in assay [1]; against 5-HT1A) were 56.3%, 92.5% and 104%, respectively. For the same compound, in assay [1], the Ki was determined as 64 nM.

On to `O=C(CCCN1CCN(c2ccccc2O)CC1)n1c2ccccc2c2ccccc21` [Example 2.33, 1-(9H-carbazol-9-yl)-4-(4-(2-hydroxyphenyl)piperazin-1-yl)butan-1-one], for which the inhibition at 10 µM amounted to 16.1% at 5-HT6, 97% in assay [1] and 101% against 5-HT1A. For the same compound, in assay [1], the Ki was found to be 50 nM.

Consider `c1ccc(CN2CCN(CCCCCCn3c4ccccc4c4ccccc43)CC2)cc1` [Example 2.47, 9-(6-(4-Benzylpiperazin-1-yl)hexyl)-9H-carbazole], for which the inhibition at 10 µM on 5-HT6 amounted to 77.5%; in assay [1] it was 86%; at 5-HT1A, 62%. Further, the inhibitory constant (Ki) in assay [1] stood at 602 nM.

Values taken from US9663464B2, “Carbazole derivatives acting on 5-HT7 receptor” (KOREA INSTITUTE OF SCIENCE AND TECHNOLOGY, priority 2015, dated 2017).
